In test [1] the target is T1, human angiotensin II type 1 receptor (hAT1R) (Homo sapiens, UniProt P30556).
T1 construct: we applied the DNA display system to in vitro selection of peptide ligands for a full-length GPCR expressed on whole cells; polyhistidine (C); expressed in transfected cells
T1 sequence (P30556 1-359): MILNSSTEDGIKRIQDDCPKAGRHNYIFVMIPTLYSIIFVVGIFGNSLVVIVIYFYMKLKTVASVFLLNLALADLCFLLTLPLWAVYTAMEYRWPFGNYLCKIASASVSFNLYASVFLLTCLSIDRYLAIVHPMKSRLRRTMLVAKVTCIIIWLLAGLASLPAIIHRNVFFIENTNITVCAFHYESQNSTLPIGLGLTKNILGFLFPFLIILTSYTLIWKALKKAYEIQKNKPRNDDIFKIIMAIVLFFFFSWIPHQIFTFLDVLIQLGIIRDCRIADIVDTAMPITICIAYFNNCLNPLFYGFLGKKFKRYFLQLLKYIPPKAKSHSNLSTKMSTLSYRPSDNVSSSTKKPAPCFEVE
The test is described as follows: Competitive binding assay at various concentrations of synthetic peptides (IC50). The note with it: streptavidin-fused Ang II on hAT1R/CHO-K1 cells competed by 0–200 nM synthetic peptide; 10 min room temperature; quantitative Western blot (Fig. S1). The protocol: Streptavidin-fused peptides for selected clones were prepared separately by using the PURE system classic II kit with 20 nM DNA for 1 h at 37°C. The streptavidin-fused peptides were incubated with the hAT1R-expressing cells for 10 min at room temperature in the presence 0–200 nM synthetic peptides (see next section) as competitors, and washed as described in the previous section. Then the binding proteins were recovered using 0.5 ml of lysis buffer (1% protease inhibitor cocktail and 4 M urea) on ice for 30 min. The cell lysates were analyzed by 15% SDS-PAGE and Western blot analysis using anti-T7·tag antibody (Novagen) followed by HRP-conjugated secondary antibody (Chemicon). The streptavidin-fused peptides with T7·tag were quantitatively detected by an ECL chemiluminescence kit and Hyperfilm ECL (GE Healthcare).
Supplementary file pone.0030084.s001.pdf: Figure S1 Competition curves for selected peptides. […] For details, see MATERIALS AND METHODS. (PDF) Click here for additional data file.

Test [2] deals with human angiotensin II (Ang II) type-1 receptor (hAT1R) with C-terminal c-myc tag, on CHO-K1 cells (human) (UniProt P30556). The test is described as follows: radioligand binding; [125I]Sar1,Ile8-Ang II, 0.05 nM to 20 nM, on hAT1R/CHO-K1 cells in 48-well plates; Ham's F12 with 1% BSA; 30 min at room temperature; Scatchard analysis; data not shown.
Another test has as its system rat AT1R. Also noted: method as in PMID 12969745. The note with it: cited from earlier work.

Here are results for 7 compounds from publication PMC3254644, “DNA Display Selection of Peptide Ligands for a Full-Length Human G Protein-Coupled Receptor on CHO-K1 Cells” (PLoS ONE, 2012).

Residues, ends and D or L forms follow the SMILES beside them.

In test [1], `CC[C@H](C)[C@H](NC(=O)[C@H](CCCNC(=N)N)NC(=O)[C@@H](N)CC(N)=O)C(=O)N[C@@H](Cc1ccc(O)cc1)C(=O)N[C@H](C(=O)N[C@@H](Cc1c[nH]cn1)C(=O)N1CCC[C@H]1C(=O)N[C@@H](Cc1ccccc1)C(=O)O)[C@@H](C)CC` [LI5-1] (H-NRIYIHPF-OH) returned an IC50 of 16 nM.

`CC(C)C[C@H](NC(=O)[C@H](CCCNC(=N)N)NC(=O)[C@@H](N)Cc1c[nH]c2ccccc12)C(=O)N[C@@H](Cc1ccc(O)cc1)C(=O)N[C@@H](CC(C)C)C(=O)N[C@@H](Cc1c[nH]cn1)C(=O)N1CCC[C@H]1C(=O)N[C@@H](Cc1ccccc1)C(=O)O` [LI5-2] (H-WRLYLHPF-OH) yielded an IC50 in test [1] of 75 nM.

In the case of `CC[C@H](C)[C@H](NC(=O)[C@@H]1CCCN1C(=O)[C@H](Cc1c[nH]cn1)NC(=O)[C@@H](NC(=O)[C@H](Cc1ccc(O)cc1)NC(=O)[C@H](CC(C)C)NC(=O)[C@H](CCCNC(=N)N)NC(=O)CN)[C@@H](C)CC)C(=O)O` [LII3-2] (H-GRLYIHPI-OH), the IC50 in test [1] stood at 8.6 nM.

On to `CC[C@H](C)[C@H](NC(=O)[C@H](Cc1ccc(O)cc1)NC(=O)[C@H](Cc1ccccc1)NC(=O)[C@H](CCCNC(=N)N)NC(=O)[C@@H](N)CCC(N)=O)C(=O)N[C@@H](Cc1c[nH]cn1)C(=O)N1CCC[C@H]1C(=O)N[C@@H](CC(C)C)C(=O)O` [LII3-4] (H-QRFYIHPL-OH), for which, in test [1], the IC50 came to 48 nM.

Turning to `CC[C@H](C)[C@H](NC(=O)[C@@H]1CCCN1C(=O)[C@H](Cc1c[nH]cn1)NC(=O)[C@@H](NC(=O)[C@H](Cc1ccc(O)cc1)NC(=O)[C@H](CC(C)C)NC(=O)[C@H](CCCCN)NC(=O)[C@@H](N)CCCNC(=N)N)[C@@H](C)CC)C(=O)O` [LII3-5] (H-RKLYIHPI-OH), in test [1], the IC50 is 7.6 nM.

[125I]Sar1,Ile8-Ang II (peptide) returned a Kd in test [2] of 8.2 nM.

For “[Lys^2]Ang II (DKVYIHPF; Angiotensin-2; UniProt P01019 25-32, looked up, variant R2K) [Ang II analogue with Lys at position 2, from the literature]”, the “affinity for rat AT1R relative to wild-type Ang II” value with rat AT1R is recorded as “lower than that of wild-type Ang II”.
